IC50 data for twelve compounds are collected here from patent US11136296B2, “Substituted N-arylethyl-2-arylquinoline-4-carboxamides and use thereof” (Bayer Aktiengesellschaft, priority 2017, dated 2021).

FP receptor, sequence (P43088 whole entry): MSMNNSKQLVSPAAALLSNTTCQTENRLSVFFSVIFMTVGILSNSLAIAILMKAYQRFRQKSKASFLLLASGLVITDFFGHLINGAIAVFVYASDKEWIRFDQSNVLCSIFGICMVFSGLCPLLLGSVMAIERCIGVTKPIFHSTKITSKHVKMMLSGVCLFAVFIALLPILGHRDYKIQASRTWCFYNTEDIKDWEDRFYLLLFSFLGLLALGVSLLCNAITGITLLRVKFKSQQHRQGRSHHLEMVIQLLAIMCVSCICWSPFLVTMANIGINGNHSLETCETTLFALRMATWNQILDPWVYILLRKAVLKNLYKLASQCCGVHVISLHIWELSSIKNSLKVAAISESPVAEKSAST

The test addresses FP receptor (Homo sapiens (Human), UniProt P43088). Briefly: In vitro test of inhibition of human FP receptor activity (PGF2α-induced calcium flux in FP-expressing CHEM1 cells). The test is classed as cell-based. The conditions noted are these: PGF2α-induced (2 nM) calcium flux in FP-expressing CHEM1 cells; some as mean values from multiple determinations. The source says:
Table 1 below lists the IC50 values from this assay for individual working examples of the invention (some as mean values from multiple independent individual determinations): […]
A general note: Calcium assays in cells follow changes in intracellular calcium, usually with a dye or a luminescent sensor.
Consider `Cc1c(-c2ccccc2)nc2ccc(Br)cc2c1C(=O)NCC(CCC(=O)O)c1ccccc1OC(F)F` (racemic) [Example 178, (+/−)-5-{[(6-Bromo-3-methyl-2-phenylquinolin-4-yl)carbonyl]amino}-4-[2-(difluoromethoxy)phenyl]pentanoic Acid], for which the 50% inhibitory concentration (IC50) stood at 6.5 nM.
With `Cc1c(-c2ccccc2)nc2ccc(Br)cc2c1C(=O)NCC(CCC(=O)O)c1c(F)cccc1F` (racemic) [Example 181, (+/−)-5-{[(6-Bromo-3-methyl-2-phenylquinolin-4-yl)carbonyl]amino}-4-(2,6-difluorophenyl)pentanoic Acid] the figure was 9.2 nM; with `Cc1c(-c2ccccc2)nc2ccc(Br)cc2c1C(=O)NCC(CCC(=O)O)c1cccc(F)c1Cl` (racemic) [Example 184, (+/−)-5-{[(6-Bromo-3-methyl-2-phenylquinolin-4-yl)carbonyl]amino}-4-(2-chloro-3-fluorophenyl)pentanoic Acid], 7.7 nM; with `Cc1c(-c2ccccc2)nc2ccc(Br)cc2c1C(=O)NCC(c1ccccc1Cl)N(C)CC(=O)O` (racemic) [Example 187, (+/−)-N-[2-{[(6-Bromo-3-methyl-2-phenylquinolin-4-yl)carbonyl]amino}-1-(2-chlorophenyl)ethyl]-N-methylglycine], 36 nM.
With `Cc1c(-c2ccccc2)nc2ccc(Br)cc2c1C(=O)NCC(NCC(=O)O)c1ccccc1Cl` (racemic) [Example 190, (+/−)-N-[2-{[(6-Bromo-3-methyl-2-phenylquinolin-4-yl)carbonyl]amino}-1-(2-chlorophenyl)ethyl]glycine] the figure was 67 nM; with `Cc1c(-c2ccccc2)nc2ccc(Br)cc2c1C(=O)NCC(OCC(=O)O)c1ccccc1Cl` (racemic) [Example 191, (+/−)-[2-{[(6-Bromo-3-methyl-2-phenylquinolin-4-yl)carbonyl]amino}-1-(2-chlorophenyl)ethoxy]acetic Acid], 100 nM.
The value for `Cc1c(-c2ccccc2)nc2ccc(Br)cc2c1C(=O)NCC(SCC(=O)O)c1ccccc1Cl` (racemic) [Example 194, (+/−)-{[2-{[(6-Bromo-3-methyl-2-phenylquinolin-4-yl)carbonyl]amino}-1-(2-chlorophenyl)ethyl]sulfanyl}acetic Acid] was 7.9 nM; that for `Cc1c(-c2ccccc2)nc2ccc(Br)cc2c1C(=O)NCC(c1ccccc1Cl)S(=O)(=O)CC(=O)O` (racemic) [Example 197, (+/−)-{[2-{[(6-Bromo-3-methyl-2-phenylquinolin-4-yl)carbonyl]amino}-1-(2-chlorophenyl)ethyl]sulfonyl}acetic Acid] was 21 nM; that for `Cc1c(-c2ccccc2)nc2ccc(Br)cc2c1C(=O)NCC(CCC(=O)O)c1c(Cl)ccc(F)c1F` (racemic) [Example 200, (+/−)-5-{[(6-Bromo-3-methyl-2-phenylquinolin-4-yl)carbonyl]amino}-4-(6-chloro-2,3-difluorophenyl)pentanoic Acid] was 3.6 nM.
On to `Cc1c(-c2ccccc2)nc2ccc(Br)cc2c1C(=O)NCC(CCC(=O)O)c1ccccc1C(F)(F)F` (racemic) [Example 203, (+/−)-5-{[(6-Bromo-3-methyl-2-phenylquinolin-4-yl)carbonyl]amino}-4-[2-(trifluoromethyl)phenyl]pentanoic Acid], for which the IC50 came out at 7.6 nM.
The value for `Cc1ccc(F)cc1C(CCC(=O)O)CNC(=O)c1c(C)c(-c2ccccc2)nc2ccc(Br)cc12` (racemic) [Example 206, (+/−)-5-{[(6-Bromo-3-methyl-2-phenylquinolin-4-yl)carbonyl]amino}-4-(5-fluoro-2-methylphenyl)pentanoic Acid] was 13 nM; that for `Cc1c(-c2ccccc2)nc2ccc(Br)cc2c1C(=O)NCC(CCC(=O)O)c1ccccc1OC(F)(F)F` (racemic) [Example 209, (+/−)-5-{[(6-Bromo-3-methyl-2-phenylquinolin-4-yl)carbonyl]amino}-4-[2-(trifluoromethoxy)phenyl]pentanoic Acid] was 1.8 nM.

A word on the IC50: it is the concentration that gives 50% inhibition.
